Read-outs that look alike come from different tables or passages of the source.
What was measured:
[1] = test system: T. cruzi Y strain amastigote; assay: Anti-amastigote activity in infected H9C2 cells, Giemsa counting, Y strain; assay type: cell-based; details: Trypanosoma cruzi, Y strain amastigotes in H9C2 cells, 48 h
[2] = humans; cited from earlier work
[3] = test system: T. cruzi Tulahuen strain amastigote (Luc-mNeonGreen); assay: Anti-amastigote activity in infected H9C2 cells, bioluminescent quantification, Tulahuen strain; assay type: cell-based; details: Trypanosoma cruzi, Tulauan strain amastigotes in H9C2 cells, bioluminescence, 48 h
Experimental: For the evaluation of anti-amastigote activity of T. cruzi Tulahuen strain, 5000 H9C2 cells were seeded in a 96 well clear bottom tissue culture plate (Thermo Scientific). After 24 hours, the culture was infected with Luc-mNeonGreen Tulahuen strain trypomastigotes at a 1:5 host-to-parasite cell ratio for 24 h. […] The medium was replaced every 24 h. At 48 h, 10 μL of 15 mg mL-1 luciferin were added into each well, and the luciferase intensity was measured using a IVIS Spectrum (Caliper Life Science) and the ROI was analyzed with Softmas Pro. Exposure time varied from 5 s to 15 s depending on signal intensity.

[4] = test system: T. cruzi Tulauen strain trypomastigote; assay: Anti-trypomastigote activity, resazurin assay, Tulauen strain; assay type: cell-based; details: Trypanosoma cruzi, read-out: half-inhibitory concentration (IC50), Tulauan strain trypomastigote
Experimental: (§1) IC50 for two strains of T. cruzi. The trypancidal effectiveness of BNZ-PS for Y and Tulauen strain was evaluated in vitro using the resarzurin assay (FIG. 2a).
(§2) Resazurin method was used to evaluate in vitro anti-trypanosoma activity against Y trypomastigotes. 1×10^7 trypomastigotes mL^−1 were incubated in 96-well plates containing serial dilution of BNZ and BNZ-PS in RPMI […] medium with 5% FBS, penicillin (100 μL/mL), […] (100 μL/mL) and L-glutamine (2 mM). For BNZ, the stock solution (1024 mM) was prepared in DMSO and made serial dilution to 1024 μM, 512 μM, 256 μM, 128 μM, 64 μM, 32 μM, 16 μM, 8 μM, 4 μM. For BNZ-PS, the stock solution (BNZ 1170 μM) was made serial dilution to 256 μM, 128 μM, 64 μM, 32 μM, 16 μM, 8 μM, 4 μM, 2 μM, 1 μM, 0.5 μM. After incubation for 24 h, at 37° C. and 5% CO2, 10 μL of alamarBlue Cell Viability reagent (Invitrogen) were added in each well, then incubate at 37° C. for 4 h. The fluorescence was measure on a microplate reader (BMG Labtech) at 560/590 nm to evaluate trypomastigote viability. A log concentration vs response curve was generated and the BNZ IC50 was calculated in GraphPad Prism 7.0.

T. cruzi = assay: IC50 of free vs nanocarrier-loaded Benznidazole (description, stage and strain not stated); assay type: cell-based; details: Trypanosoma cruzi; free vs loaded in nanocarrier; typical / estimated values
[5] = mice; cited from earlier work
[6] = cited from earlier work
[7] = Assessment of the toxicity of BNZ and BNZ-PS in vivo; parameters: species or system mouse; details: BNZ 100 mg/kg
Experimental: […] Mice weight was recorded during the treatment course. […] Serums (Sera) were sent out to central lab (IDEXX BioResearch) to measure alanine aminotransferase (ALT/SGPT), aspartate aminotransferase (AST/SGOT), bile acid, bilirubin, blood urea nitrogen (BUN), creatinine, gamma-glutamyltransferase (GGT).

[8] = test system: T. cruzi Y strain infected BALB/c mice; assay: BNZ and BNZ-PS therapy in murine model of acute Chagas disease; assay type: in vivo, mouse
[9] = traditional oral formulation; cited from earlier work
[10] = test system: T. cruzi-infected patients; details: standard BNZ doses; cited from earlier work
[11] = test system: T. cruzi Y strain trypomastigote; assay: Anti-trypomastigote activity, resazurin assay, Y strain; assay type: cell-based; details: Trypanosoma cruzi, 24 h, read-out: half-inhibitory concentration (IC50), Y strain trypomastigote
Experimental: as §1
The Y strain of T. cruzi was used for all experiments. Epimastigotes were cultured using standard methods and tissue culture amastigotes and trypomastigotes were produced by the addition of log-phase epimastigotes to cultured H9C2 rat myoblast cells, which contain small numbers of metacyclic trypomastigotes capable of initiating mammalian cell infection. After several days of culture in H9C2 cells, amastigotes and trypomastigotes were purified for use in IC50 determination experiments.
as §2, with “For BNZ-PS, the stock solution (BNZ 1170 μM) was made serial dilution to 256 μM, 128 μM, 64 μM, 32 μM, 16 μM, 8 μM, 4 μM, 2 μM, 1 μM, 0.5 μM. After incubation for 24 h, at 37° C. and 5% CO2, 10 μL of alamarBlue Cell Viability reagent (Invitrogen) were added in each well, then incubate at 37° C. for 4 h.” left out

[12] = test system: extracellular T. cruzi developmental stages; details: cited from earlier work

| Compound | IC50 [1] [µM] | half-life (t1/2) [2] [h] | IC50 [3] [µM] | IC50 [4] [µM] | IC50 (T. cruzi) [µM] | half-life (t1/2) [5] [h] | water solubility [6] | water solubility ([6]; listed as Benznidazole (BNZ)) | hepatotoxicity, serum ALT ([7]; d21) | body weight during treatment ([7]; BNZ-PS 1.5 or 0.15 mg/kg, 3 weeks) | heart parasitemia (qPCR) ([8]; end of experiment, 25 dpi) | suppression of parasitemia ([8]; infected mice treated from d7, monitored to d25) | fraction of drug bound to plasmatic proteins [9] | patients interrupting treatment due to severe side effects [10] [%] | IC50 [11] [µM] | activity against extracellular T. cruzi developmental stages [12] |
| --- | --- | --- | --- | --- | --- | --- | --- | --- | --- | --- | --- | --- | --- | --- | --- | --- |
| O=C(Cn1ccnc1[N+](=O)[O-])NCc1ccccc1 [BNZ, N-benzyl-2-(2-nitro-1H-imidazol-1-yl)acetamide] | 30.1 | 12 | 12.5 | 12.4 | ~33 | 2 | practically insoluble in water | poor water solubility | show hepatotoxicity as reflected by increased serum ALT | lose weight | significantly reduces the heart parasitemia | Effective suppression of parasitemia | over 40% | 20 | 55.9 |  |
| C[C@@H]1[C@H](O)[C@@H](C)/C=C/C=C/C=C/C=C/C=C/C=C/C=C/[C@H](O[C@@H]2O[C@H](C)[C@@H](O)[C@H](N)[C@@H]2O)C[C@@H]2O[C@](O)(C[C@@H](O)C[C@@H](O)[C@H](O)CC[C@@H](O)C[C@@H](O)CC(=O)O[C@H]1C)C[C@H](O)[C@H]2C(=O)O [Amphotericin B] |  |  |  |  |  |  |  |  |  |  |  |  |  |  |  | satisfactory |

— patent publication US12311054B2, “Compositions and methods of using propylene sulfide-based polymers for treatment of Chagas disease” (priority 2019, dated 2025)
